≈ marks a conversion by molar mass, not a printed value. Calls of active or inactive are those of the source. No cut-off for these calls is given here.
Key:
Escherichia coli [1] = assay: Antibacterial activity against gentamicin-resistant Escherichia coli clinical isolate assessed as susceptible isolates after 18 hrs by agar dilution method; type: functional
[2] = tested on: Haemophilus parainfluenzae; assay: Antibacterial activity against non-gentamicin-resistant Haemophilus parainfluenzae clinical isolate assessed as susceptible isolates after 18 hrs by agar dilution method; type: functional, organism-based
Enterobacter cloacae [3] = assay: Antibacterial activity against gentamicin-resistant Enterobacter cloacae clinical isolate after 18 hrs by agar dilution method; type: functional
Pseudomonas sp. [4] = assay: Antibacterial activity against gentamicin-resistant Pseudomonas spp. clinical isolate after 18 hrs by agar dilution method; type: functional
Citrobacter freundii [5] = assay: Antibacterial activity against non-gentamicin-resistant Citrobacter freundii clinical isolate assessed as susceptible isolates after 18 hrs by agar dilution method; type: functional
Serratia marcescens [6] = assay: Antibacterial activity against gentamicin-resistant Serratia marcescens clinical isolate assessed as susceptible isolates after 18 hrs by agar dilution method; type: functional
Staphylococcus aureus [7] = assay: Antibacterial activity against gentamicin-resistant Staphylococcus aureus clinical isolate after 18 hrs by agar dilution method; type: functional
Escherichia coli [8] = assay: Antibacterial activity against non-gentamicin-resistant Escherichia coli clinical isolate after 18 hrs by agar dilution method; type: functional
Citrobacter koseri [9] = assay: Antibacterial activity against non-gentamicin-resistant Citrobacter diversus clinical isolate after 18 hrs by agar dilution method; type: functional
Citrobacter koseri [10] = assay: Antibacterial activity against gentamicin-resistant Citrobacter diversus clinical isolate assessed as susceptible isolates after 18 hrs by agar dilution method; type: functional
Pseudomonas aeruginosa [11] = assay: Antibacterial activity against non-gentamicin-resistant Pseudomonas aeruginosa clinical isolate assessed as susceptible isolates after 18 hrs by agar dilution method; type: functional
Citrobacter freundii [12] = assay: Antibacterial activity against gentamicin-resistant Citrobacter freundii clinical isolate assessed as susceptible isolates after 18 hrs by agar dilution method; type: functional
Klebsiella aerogenes [13] = assay: Antibacterial activity against gentamicin-resistant Enterobacter aerogenes clinical isolate after 18 hrs by agar dilution method; type: functional
Klebsiella pneumoniae [14] = assay: Antibacterial activity against non-gentamicin-resistant Klebsiella pneumoniae clinical isolate after 18 hrs by agar dilution method; type: functional
Enterobacter cloacae [15] = assay: Antibacterial activity against gentamicin-resistant Enterobacter cloacae clinical isolate assessed as susceptible isolates after 18 hrs by agar dilution method; type: functional
[16] = tested on: Staphylococcus epidermidis; assay: Antibacterial activity against non-gentamicin-resistant Staphylococcus epidermidis clinical isolate after 18 hrs by agar dilution method; type: functional
[17] = tested on: Escherichia coli BL21(DE3); assay: Acetylation activity of AAC(6')-APH(2'') in Escherichia coli BL21(DE3) assessed as production of free pyridine-4-thiolate
Pseudomonas aeruginosa [18] = assay: Antibacterial activity against gentamicin-resistant Pseudomonas aeruginosa clinical isolate after 18 hrs by agar dilution method; type: functional
Morganella morganii [19] = assay: Antibacterial activity against gentamicin-resistant Morganella morganii clinical isolate assessed as susceptible isolates after 18 hrs by agar dilution method; type: functional
Klebsiella pneumoniae [20] = assay: Antibacterial activity against gentamicin-resistant Klebsiella pneumoniae clinical isolate after 18 hrs by agar dilution method; type: functional
Pseudomonas sp. [21] = assay: Antibacterial activity against gentamicin-resistant Pseudomonas spp. clinical isolate assessed as susceptible isolates after 18 hrs by agar dilution method; type: functional
Pseudomonas sp. [22] = assay: Antibacterial activity against non-gentamicin-resistant Pseudomonas spp. clinical isolate after 18 hrs by agar dilution method; type: functional
Staphylococcus aureus [23] = assay: Antibacterial activity against gentamicin-resistant Staphylococcus aureus clinical isolate assessed as susceptible isolates after 18 hrs by agar dilution method; type: functional
Morganella morganii [24] = assay: Antibacterial activity against non-gentamicin-resistant Morganella morganii clinical isolate after 18 hrs by agar dilution method; type: functional
Enterobacter cloacae [25] = assay: Antibacterial activity against non-gentamicin-resistant Enterobacter cloacae clinical isolate after 18 hrs by agar dilution method; type: functional
Citrobacter freundii [26] = assay: Antibacterial activity against non-gentamicin-resistant Citrobacter freundii clinical isolate after 18 hrs by agar dilution method; type: functional
Haemophilus influenzae = assay: Antibacterial activity against non-gentamicin-resistant Haemophilus influenzae clinical isolate after 18 hrs by agar dilution method; type: functional
[27] = tested on: Staphylococcus epidermidis; assay: Antibacterial activity against gentamicin-resistant Staphylococcus epidermidis clinical isolate assessed as susceptible isolates after 18 hrs by agar dilution method; type: functional
[28] = tested on: Acinetobacter calcoaceticus; assay: Antibacterial activity against gentamicin-resistant Acinetobacter calcoaceticus clinical isolate after 18 hrs by agar dilution method; type: functional
Citrobacter freundii [29] = assay: Antibacterial activity against gentamicin-resistant Citrobacter freundii clinical isolate after 18 hrs by agar dilution method; type: functional
Pseudomonas sp. [30] = assay: Antibacterial activity against non-gentamicin-resistant Pseudomonas spp. clinical isolate assessed as susceptible isolates after 18 hrs by agar dilution method; type: functional
Klebsiella aerogenes [31] = assay: Antibacterial activity against non-gentamicin-resistant Enterobacter aerogenes clinical isolate assessed as susceptible isolates after 18 hrs by agar dilution method; type: functional
[32] = tested on: Escherichia coli BL21(DE3); assay: Phosphorylation activity of AAC(6')-APH(2'') in Escherichia coli BL21(DE3) assessed as oxidation of NADH by pyruvate kinase
[33] = tested on: Acinetobacter calcoaceticus; assay: Antibacterial activity against gentamicin-resistant Acinetobacter calcoaceticus clinical isolate assessed as susceptible isolates after 18 hrs by agar dilution method; type: functional
[34] = tested on: Acinetobacter calcoaceticus; assay: Antibacterial activity against non-gentamicin-resistant Acinetobacter calcoaceticus clinical isolate assessed as susceptible isolates after 18 hrs by agar dilution method; type: functional
Klebsiella pneumoniae [35] = assay: Antibacterial activity against gentamicin-resistant Klebsiella pneumoniae clinical isolate assessed as susceptible isolates after 18 hrs by agar dilution method; type: functional
[36] = tested on: Haemophilus parainfluenzae; assay: Antibacterial activity against non-gentamicin-resistant Haemophilus parainfluenzae clinical isolate after 18 hrs by agar dilution method; type: functional
Providencia rettgeri = assay: Antibacterial activity against gentamicin-resistant Proteus rettgeri clinical isolate after 18 hrs by agar dilution method; type: functional
Enterobacter cloacae [37] = assay: Antibacterial activity against non-gentamicin-resistant Enterobacter cloacae clinical isolate assessed as susceptible isolates after 18 hrs by agar dilution method; type: functional
Pseudomonas aeruginosa [38] = assay: Antibacterial activity against non-gentamicin-resistant Pseudomonas aeruginosa clinical isolate after 18 hrs by agar dilution method; type: functional
Morganella morganii [39] = assay: Antibacterial activity against gentamicin-resistant Morganella morganii clinical isolate after 18 hrs by agar dilution method; type: functional
Serratia marcescens [40] = assay: Antibacterial activity against non-gentamicin-resistant Serratia marcescens clinical isolate after 18 hrs by agar dilution method; type: functional
Serratia marcescens [41] = assay: Antibacterial activity against gentamicin-resistant Serratia marcescens clinical isolate after 18 hrs by agar dilution method; type: functional
Proteus mirabilis [42] = assay: Antibacterial activity against non-gentamicin-resistant Proteus mirabilis clinical isolate assessed as susceptible isolates after 18 hrs by agar dilution method; type: functional
Proteus mirabilis [43] = assay: Antibacterial activity against gentamicin-resistant Proteus mirabilis clinical isolate after 18 hrs by agar dilution method; type: functional
[44] = tested on: Staphylococcus epidermidis; assay: Antibacterial activity against non-gentamicin-resistant Staphylococcus epidermidis clinical isolate assessed as susceptible isolates after 18 hrs by agar dilution method; type: functional

In the case of `CCN[C@@H]1C[C@H](N)[C@@H](O[C@@H]2OC(C(C)N)=CC[C@@H]2N)[C@H](O)[C@H]1O[C@H]1OC[C@](C)(O)[C@H](NC)[C@H]1O` (some centres not stated) [VERTILMICIN], the Activity (Escherichia coli [1]) is reported as 68.4%, the Activity [2] is reported as “inactive” and the MIC50 (Enterobacter cloacae [3]) is reported as 32 µg/mL (≈ 65.4 µM). It also gave an MIC90 (Enterobacter cloacae [3]) greater than 128 µg/mL, an MIC50 (Pseudomonas sp. [4]) of 128 µg/mL (≈ 261 µM) and an MIC90 (Pseudomonas sp. [4]) greater than 128 µg/mL. The Activity (Citrobacter freundii [5]) was 90%, the Activity (Serratia marcescens [6]) was 10% and the MIC50 (Staphylococcus aureus [7]) was 4 µg/mL (≈ 8.17 µM). For the same molecule, the MIC90 (Staphylococcus aureus [7]) was 16 µg/mL (≈ 32.7 µM), the MIC50 (Escherichia coli [8]) was 0.5 µg/mL (≈ 1.02 µM) and the MIC90 (Escherichia coli [8]) was 0.5 µg/mL (≈ 1.02 µM). The MIC (Citrobacter koseri [9]) was 0.25 µg/mL (≈ 0.511 µM), the MIC50 (Citrobacter koseri [9]) was 0.25 µg/mL (≈ 0.511 µM) and the MIC90 (Citrobacter koseri [9]) was 0.5 µg/mL (≈ 1.02 µM). The Activity (Citrobacter koseri [10]) was 7.1%, the Activity (Pseudomonas aeruginosa [11]) was 78.7% and the Activity (Citrobacter freundii [12]) was 52.6%. The MIC50 (Klebsiella aerogenes [13]) was 16 µg/mL (≈ 32.7 µM), the MIC90 (Klebsiella aerogenes [13]) was greater than 128 µg/mL and the MIC50 (Klebsiella pneumoniae [14]) was 0.25 µg/mL (≈ 0.511 µM). It also gave an MIC90 (Klebsiella pneumoniae [14]) of 0.5 µg/mL (≈ 1.02 µM), an Activity (Enterobacter cloacae [15]) of 26.3% and an MIC50 [16] of 0.125 µg/mL (≈ 0.255 µM). It also gave an MIC90 [16] of 1 µg/mL (≈ 2.04 µM), a Km [17] of 469 µM and an MIC50 (Pseudomonas aeruginosa [18]) of 32 µg/mL (≈ 65.4 µM). The MIC90 (Pseudomonas aeruginosa [18]) was greater than 128 µg/mL, the Activity (Morganella morganii [19]) was 50% and the MIC50 (Klebsiella pneumoniae [20]) was 16 µg/mL (≈ 32.7 µM). The MIC90 (Klebsiella pneumoniae [20]) was greater than 128 µg/mL, the Activity (Pseudomonas sp. [21]) was 7.7% and the MIC50 (Pseudomonas sp. [22]) was 8 µg/mL (≈ 16.3 µM). For the same molecule, the MIC90 (Pseudomonas sp. [22]) was 16 µg/mL (≈ 32.7 µM), the Activity (Staphylococcus aureus [23]) was 83.3% and the MIC50 (Morganella morganii [24]) was 1 µg/mL (≈ 2.04 µM). For the same molecule, the MIC90 (Morganella morganii [24]) was 2 µg/mL (≈ 4.08 µM), the MIC50 (Enterobacter cloacae [25]) was 0.25 µg/mL (≈ 0.511 µM) and the MIC90 (Enterobacter cloacae [25]) was 0.5 µg/mL (≈ 1.02 µM). For the same molecule, the MIC50 (Citrobacter freundii [26]) was 0.5 µg/mL (≈ 1.02 µM), the MIC90 (Citrobacter freundii [26]) was 8 µg/mL (≈ 16.3 µM) and the MIC50 (Haemophilus influenzae) was 1 µg/mL (≈ 2.04 µM). The MIC90 (Haemophilus influenzae) was 1 µg/mL (≈ 2.04 µM), the Activity [27] was 88.5% and the MIC50 [28] was 128 µg/mL (≈ 261 µM). It also gave an MIC90 [28] greater than 128 µg/mL, an MIC50 (Citrobacter freundii [29]) of 8 µg/mL (≈ 16.3 µM) and an MIC90 (Citrobacter freundii [29]) of 32 µg/mL (≈ 65.4 µM). It also gave an Activity (Pseudomonas sp. [30]) of 72.7%, an Activity (Klebsiella aerogenes [31]) of 98.1% and a Km [32] of 104 µM. The Activity [33] was 24%, the Activity [34] was 93.8% and the Activity (Klebsiella pneumoniae [35]) was 32.1%. The MIC50 [36] was 1 µg/mL (≈ 2.04 µM), the MIC90 [36] was 2 µg/mL (≈ 4.08 µM) and the MIC50 (Providencia rettgeri) was 8 µg/mL (≈ 16.3 µM). For the same molecule, the MIC90 (Providencia rettgeri) was 64 µg/mL (≈ 131 µM), the Activity (Enterobacter cloacae [37]) was 100% and the MIC50 (Pseudomonas aeruginosa [38]) was 8 µg/mL (≈ 16.3 µM). It also gave an MIC90 (Pseudomonas aeruginosa [38]) of 32 µg/mL (≈ 65.4 µM), an MIC50 (Morganella morganii [39]) of 8 µg/mL (≈ 16.3 µM) and an MIC90 (Morganella morganii [39]) of 32 µg/mL (≈ 65.4 µM). It also gave an MIC (Serratia marcescens [40]) of 0.25 µg/mL (≈ 0.511 µM), an MIC50 (Serratia marcescens [40]) of 0.25 µg/mL (≈ 0.511 µM) and an MIC90 (Serratia marcescens [40]) of 1 µg/mL (≈ 2.04 µM). The MIC50 (Serratia marcescens [41]) was greater than 128 µg/mL, the MIC90 (Serratia marcescens [41]) was greater than 128 µg/mL and the Activity (Proteus mirabilis [42]) was 98.4%. The MIC50 (Proteus mirabilis [43]) was 32 µg/mL (≈ 65.4 µM), the MIC90 (Proteus mirabilis [43]) was greater than 128 µg/mL and the Activity [44] was 100%.

Reference: ChEMBL document CHEMBL1275533, “In vitro antibacterial activity of vertilmicin and its susceptibility to modifications by the recombinant AAC6'-APH2'' enzyme” (2008)
